According to patent US7807678B2, “Peptidomimetics of biologically active metallopeptides” (Palatin Technologies, Inc., priority 2001, dated 2010):
Non-standard residues stand in square brackets, D forms with d. Residues, ends and D or L forms follow the SMILES beside them. *: point of attachment. Hyp = O=C(O)[C@@H]1C[C@@H](O)CN1; NH(CH2)3NH2 = NCCCN*; Bn = c1ccc(C*)cc1

Key:
MC5-R = MC5-R (Homo sapiens, UniProt P33032); assay: Competitive inhibition binding assay, 125I-NDP-α-MSH, MC5-R; parameters: expressed in transfected cells; settings: for Inhibition at 1 μM MC5-R: 1 μM compound, inhibition of 125I-NDP-α-MSH binding, mean of triplicates, results less than 0% reported as 0%
Sequence of MC5-R (P33032 whole entry): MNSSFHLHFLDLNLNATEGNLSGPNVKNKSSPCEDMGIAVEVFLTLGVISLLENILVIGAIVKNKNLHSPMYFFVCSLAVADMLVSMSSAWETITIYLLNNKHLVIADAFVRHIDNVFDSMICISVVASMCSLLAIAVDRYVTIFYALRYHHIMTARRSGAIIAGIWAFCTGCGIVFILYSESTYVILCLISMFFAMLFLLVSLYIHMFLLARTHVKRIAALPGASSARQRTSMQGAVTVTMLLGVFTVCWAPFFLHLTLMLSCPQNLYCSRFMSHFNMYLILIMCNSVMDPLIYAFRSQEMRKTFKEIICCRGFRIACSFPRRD
Method: (§1) The competitive inhibition binding assay was conducted using membranes prepared from hMC3-R, hMC4-R, hMC5-R, and B-16 mouse melanoma cells (containing MC1-R) using 0.4 nM ^125I-NDP-α-MSH (New England Nuclear, Boston, Mass., USA) in 50 mM HEPES buffer containing 1 mM MgCl2, 2 mM CaCl2, and 5 mM KCl, at pH 7.2. The assay tube also contained a chosen concentration of the test peptidomimetic of this invention, generally 1 μM, for determining its efficacy in inhibiting the binding of ^125I-NDP-α-MSH to its receptor.
(§2) Incubation was for 90 minutes at room temperature, after which the assay mixture was filtered and the membranes washed three times with ice cold buffer. The filter was dried and counted in a gamma counter for remaining radioactivity bound to the membranes. 100% specific binding was defined as the difference in radioactivity (cpm) bound to cell membranes in the absence and presence of 1 μM α-MSH. […] Each assay was conducted in triplicate and the actual mean values are described.

MC4-R = MC4-R (Homo sapiens, UniProt P32245); assay: Competitive inhibition binding assay, 125I-NDP-α-MSH, MC4-R; parameters: expressed in transfected cells; settings: for Inhibition at 1 μM MC4-R: 1 μM compound, inhibition of 125I-NDP-α-MSH binding, mean of triplicates, results less than 0% reported as 0%
Sequence of MC4-R (P32245 whole entry): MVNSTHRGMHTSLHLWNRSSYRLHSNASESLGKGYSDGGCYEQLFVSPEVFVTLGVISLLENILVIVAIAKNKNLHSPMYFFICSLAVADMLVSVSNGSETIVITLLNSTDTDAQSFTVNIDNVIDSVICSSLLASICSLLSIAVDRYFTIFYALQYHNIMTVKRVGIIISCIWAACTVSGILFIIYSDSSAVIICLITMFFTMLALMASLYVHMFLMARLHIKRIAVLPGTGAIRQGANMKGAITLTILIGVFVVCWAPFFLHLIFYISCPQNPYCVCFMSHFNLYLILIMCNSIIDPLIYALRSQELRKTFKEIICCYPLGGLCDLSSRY
Method: as §1, §2

MC3-R = MC3-R (Homo sapiens, UniProt P41968); assay: Competitive inhibition binding assay, 125I-NDP-α-MSH, MC3-R; parameters: expressed in transfected cells; settings: for Inhibition at 1 μM MC3-R: 1 μM compound, inhibition of 125I-NDP-α-MSH binding, mean of triplicates, results less than 0% reported as 0%
Sequence of MC3-R (P41968 whole entry): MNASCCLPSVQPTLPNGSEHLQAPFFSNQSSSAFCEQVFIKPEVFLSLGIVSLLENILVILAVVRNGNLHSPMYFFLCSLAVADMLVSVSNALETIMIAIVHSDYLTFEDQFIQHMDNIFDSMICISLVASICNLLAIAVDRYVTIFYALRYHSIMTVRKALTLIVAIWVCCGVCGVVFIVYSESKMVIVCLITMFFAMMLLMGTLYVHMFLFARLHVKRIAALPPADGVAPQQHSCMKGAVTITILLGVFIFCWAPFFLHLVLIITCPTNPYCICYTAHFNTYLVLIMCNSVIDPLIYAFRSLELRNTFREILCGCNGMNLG
Method: as §1, §2

[1] = biological target: T1, MC1-R (B-16 mouse melanoma cells) (Mus musculus, UniProt Q01727); assay: Competitive inhibition binding assay, 125I-NDP-α-MSH, MC1-R; settings: for Inhibition at 1 μM MC1-R: 1 μM compound, inhibition of 125I-NDP-α-MSH binding, mean of triplicates, results less than 0% reported as 0%
T1 construct: B-16 mouse melanoma cells (containing MC1-R); endogenous in cells; host or cells: B-16 mouse melanoma cells
T1 sequence (Q01727 whole entry): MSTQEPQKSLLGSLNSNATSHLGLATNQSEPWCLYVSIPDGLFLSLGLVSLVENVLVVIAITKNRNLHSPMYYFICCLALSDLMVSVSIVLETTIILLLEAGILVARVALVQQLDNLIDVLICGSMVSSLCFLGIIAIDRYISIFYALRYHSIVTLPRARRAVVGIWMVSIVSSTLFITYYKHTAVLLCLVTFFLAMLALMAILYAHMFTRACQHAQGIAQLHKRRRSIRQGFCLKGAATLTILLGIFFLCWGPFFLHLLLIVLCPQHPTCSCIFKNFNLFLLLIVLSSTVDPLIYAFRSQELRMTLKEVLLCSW
Method: as §1, §2

| Inhibition at 1 μM MC5-R (MC5-R) | Inhibition at 1 μM MC4-R (MC4-R) | Inhibition at 1 μM MC3-R (MC3-R) | Inhibition at 1 μM MC1-R [1] | inhibition at 1 µM (MC5-R) | inhibition at 1 µM (MC4-R) | inhibition at 1 µM (MC3-R) | inhibition at 1 µM [1] | Compound |
| --- | --- | --- | --- | --- | --- | --- | --- | --- |
| 81% | 96% | 55% | 86% |  |  |  |  | N=C(N)NCCC[C@H]1C(=O)N(CCc2c[nH]c3ccccc23)CCN1C(=O)[C@@H](Cc1ccc(Cl)cc1)NC(=O)[C@@H](N)COCc1ccccc1 [Example 16] |
| 2% | 15% | 21% | 10% |  |  |  |  | NCCCNC(=O)[C@@H]1C[C@@H](OCc2ccccc2)CN1C(=O)[C@@H](Cc1ccccc1)NC(=O)[C@@H](N)C1Cc2ccccc2C1 [Example 174] |
| 25% | 51% | 19% | 81% |  |  |  |  | NCCCC[C@H]1C(=O)N2C(CC[C@@H]2COc2ccccc2)N1C(=O)[C@@H](Cc1ccc(Cl)cc1)NC(=O)[C@@H]1Cc2ccccc2CN1 (stereo partly shown) [Example 106] |
| 28% | 85% | 40% | 37% |  |  |  |  | CC(C)NC(=N)NCCCC1C(=O)N(CCc2ccc3ccccc3c2)CCN1C(=O)C(N)Cc1ccc(Cl)cc1Cl (stereo not shown) [Example 75] |
| 0% | 8% | 13% | 0% |  |  |  |  | NCCCNC(=O)[C@@H]1C[C@@H](OCc2ccccc2)CN1C(=O)[C@@H](Cc1ccccc1)NC(=O)[C@H](N)Cc1cccc2ccccc12 [Example 166] |
| 0% | 0% | 0% | 39% |  |  |  |  | CCCCCCC(=O)N[C@@H](COCc1ccccc1)C(=O)N[C@H](Cc1ccc2ccccc2c1)C(=O)N1C[C@@H](Oc2ccc3ccccc3c2)C[C@H]1C(=O)NCCCN [Example 138] |
| 65% | 88% | 35% | 88% |  |  |  |  | NCCCC[C@H]1C(=O)N(CCOc2ccc3ccccc3c2)CCN1C(=O)[C@@H](Cc1ccc(Cl)cc1)NC(=O)[C@@H]1Cc2ccccc2CN1 [Example 30] |
|  |  |  |  | 0% | 0% | 0% | 23% | [2H]N[C@@H](Cc1ccccc1)C(=O)N1C[C@H](OCc2ccccc2)C[C@H]1C(=O)NCCCN [Example 137] |
| 0% | 0% | 0% | 93% |  |  |  |  | C[C@H](N)C(=O)N[C@@H](Cc1cnc[nH]1)C(=O)N[C@H](Cc1ccccc1)C(=O)N1C[C@H](OCc2ccccc2)C[C@H]1C(=O)NCCCN [Example 135] (H-AH[dF][Hyp](Bn)-{NH(CH2)3NH2}) |
| 14% | 40% | 39% | 46% |  |  |  |  | NCCCC[C@H]1C(=O)N(CCc2ccccc2)CCN1C(=O)[C@@H](Cc1ccc(Cl)cc1)NC(=O)[C@@H](N)COCc1ccccc1 [Example 12] |
| 29% | 87% | 38% | 34% |  |  |  |  | N=C(N)NCCC[C@H]1C(=O)N(CCc2ccc3ccccc3c2)CCN1C(=O)[C@H](N)Cc1ccc(Cl)cc1 [Example 123] |
| 57% | 97% | 73% | 60% |  |  |  |  | N=C(N)NCCCC[C@H]1C(=O)N(CCc2ccc3ccccc3c2)CCN1C(=O)[C@H](N)Cc1ccc2ccccc2c1 [Example 71] |
| 3% | 0% | 0% | 7% |  |  |  |  | N[C@H](Cc1ccc(Cl)cc1Cl)C(=O)N1CCN(CCc2ccc3ccccc3c2)C(=O)[C@@H]1CCCn1cncn1 [Example 58] |
| 27% | 93% | 43% | 19% |  |  |  |  | CNC(=N)NCCC[C@H]1C(=O)N(CCc2ccc3ccccc3c2)CCN1C(=O)[C@H](N)Cc1ccc(Cl)cc1Cl [Example 72] |
| 23% | 55% | 11% | 28% |  |  |  |  | NCC[C@H]1C(=O)N(CCc2ccc3ccccc3c2)CCN1C(=O)[C@H](N)Cc1ccc(Cl)cc1Cl [Example 54] |
| 12% | 3% | 8% | 20% |  |  |  |  | N[C@H](Cc1ccc(Cl)cc1Cl)C(=O)N1CCN(CCc2ccc3ccccc3c2)C(=O)[C@@H]1CCCNc1cc[nH]n1 [Example 69] |
